Measurements taken from patent US9359330B2, “Substituted piperidines as sodium channel blockers” (Purdue Pharma L.P., priority 2013, dated 2016).

Key:
human Nav1.7 = human Nav1.7 (Homo sapiens (Human), UniProt Q15858); experiment: FLIPR sodium dye assay with KCl and test article pre-incubation, recombinant Nav1.7/HEK293 cells; format: cell-based; conditions: Nav1.7, FLIPR assay
hNav1.7 = hNav1.7 (Homo sapiens (Human), UniProt Q15858); experiment: Electrophysiology (EP) whole-cell patch clamp assay, hNav1.7 expressing HEK-293 cells; format: cell-based; conditions: for Ki: affinity for inactivated channels, read-out: Nav1.7 Activity EP assay Ki; for Kd: resting block dissociation constant, read-out: Nav1.7 Activity EP assay Kr
Sequence of hNav1.7 (Q15858 other isoform, or with tags, fused parts or gaps): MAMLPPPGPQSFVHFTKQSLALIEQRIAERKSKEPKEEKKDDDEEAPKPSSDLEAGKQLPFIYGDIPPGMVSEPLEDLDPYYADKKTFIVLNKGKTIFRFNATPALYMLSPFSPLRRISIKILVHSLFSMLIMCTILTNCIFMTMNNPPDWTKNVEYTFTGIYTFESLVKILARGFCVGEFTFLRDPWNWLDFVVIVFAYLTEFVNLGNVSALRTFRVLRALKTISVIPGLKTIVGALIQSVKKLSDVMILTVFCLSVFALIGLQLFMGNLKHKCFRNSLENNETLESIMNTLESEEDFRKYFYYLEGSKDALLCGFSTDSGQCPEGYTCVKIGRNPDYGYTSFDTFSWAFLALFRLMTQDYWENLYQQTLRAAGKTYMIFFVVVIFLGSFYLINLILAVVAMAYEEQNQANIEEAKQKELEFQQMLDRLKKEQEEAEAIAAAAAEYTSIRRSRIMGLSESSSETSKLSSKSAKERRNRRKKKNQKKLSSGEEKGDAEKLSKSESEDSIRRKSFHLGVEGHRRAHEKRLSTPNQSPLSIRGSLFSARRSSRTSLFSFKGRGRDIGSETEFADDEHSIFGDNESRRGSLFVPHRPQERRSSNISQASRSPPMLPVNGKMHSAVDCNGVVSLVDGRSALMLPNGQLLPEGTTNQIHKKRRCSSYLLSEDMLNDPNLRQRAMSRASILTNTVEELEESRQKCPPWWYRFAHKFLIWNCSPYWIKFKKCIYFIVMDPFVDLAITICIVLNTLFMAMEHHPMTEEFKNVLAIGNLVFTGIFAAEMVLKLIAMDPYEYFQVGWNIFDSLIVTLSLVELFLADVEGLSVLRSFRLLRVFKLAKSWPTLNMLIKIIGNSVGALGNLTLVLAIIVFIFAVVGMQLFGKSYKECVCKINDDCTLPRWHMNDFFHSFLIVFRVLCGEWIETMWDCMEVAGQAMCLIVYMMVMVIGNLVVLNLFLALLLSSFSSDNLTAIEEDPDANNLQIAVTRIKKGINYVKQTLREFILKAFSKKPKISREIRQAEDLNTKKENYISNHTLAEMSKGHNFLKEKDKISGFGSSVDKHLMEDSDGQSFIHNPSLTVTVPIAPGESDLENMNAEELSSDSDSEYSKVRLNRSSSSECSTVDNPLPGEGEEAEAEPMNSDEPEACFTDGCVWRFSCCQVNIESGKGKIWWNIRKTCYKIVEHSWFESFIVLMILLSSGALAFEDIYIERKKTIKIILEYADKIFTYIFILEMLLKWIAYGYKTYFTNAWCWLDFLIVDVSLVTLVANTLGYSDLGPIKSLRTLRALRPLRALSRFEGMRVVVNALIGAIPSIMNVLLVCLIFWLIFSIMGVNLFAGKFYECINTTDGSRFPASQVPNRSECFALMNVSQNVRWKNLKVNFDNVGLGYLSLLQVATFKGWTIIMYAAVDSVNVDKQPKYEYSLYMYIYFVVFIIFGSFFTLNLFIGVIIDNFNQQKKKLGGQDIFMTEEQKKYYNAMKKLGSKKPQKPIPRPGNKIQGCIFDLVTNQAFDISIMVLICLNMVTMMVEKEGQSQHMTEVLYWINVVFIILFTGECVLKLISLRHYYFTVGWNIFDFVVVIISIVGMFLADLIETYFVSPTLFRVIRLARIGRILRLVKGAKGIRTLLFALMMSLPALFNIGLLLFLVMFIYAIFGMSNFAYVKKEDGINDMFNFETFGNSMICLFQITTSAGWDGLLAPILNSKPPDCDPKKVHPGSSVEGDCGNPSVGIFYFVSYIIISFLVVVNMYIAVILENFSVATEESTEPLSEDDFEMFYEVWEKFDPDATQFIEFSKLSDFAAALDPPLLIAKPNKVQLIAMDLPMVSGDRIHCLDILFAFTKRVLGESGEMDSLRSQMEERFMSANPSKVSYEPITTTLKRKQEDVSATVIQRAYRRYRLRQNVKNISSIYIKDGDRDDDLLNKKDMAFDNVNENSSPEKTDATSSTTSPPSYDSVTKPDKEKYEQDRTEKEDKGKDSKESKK

Sequence of human Nav1.7 (Q15858 other isoform, or with tags, fused parts or gaps): as above

Row | IC50 (human Nav1.7) [nM] | Ki (hNav1.7) [nM] | Kd (hNav1.7) [nM] | SMILES
1 | > 20000 |  |  | CN(C)c1ncc(-c2ccccc2C2CCCN(C(=S)Nc3ccc(C(F)(F)F)cc3)C2)cn1 (stereo not drawn) [Compound 29, 3-(2-(2-(dimethylamino)pyrimidin-5-yl)phenyl)-N-(4-(trifluoromethyl)phenyl)piperidine-1-carbothioamide]
2 | 1600 ± 105 |  |  | O=C(c1ccc(OCC(F)(F)F)nc1)N1CCCC(c2ccccc2)C1 (stereo not drawn) [Compound 10, (3-phenylpiperidin-1-yl)(6-(2,2,2-trifluoroethoxy)pyridin-3-yl)methanone]
3 | 376 ± 29 |  |  | CN(C)c1ncc(-c2ccccc2C2CCCN(S(=O)(=O)c3ccc(OC(F)(F)F)cc3)C2)cn1 (stereo not drawn) [Compound 33, N,N-dimethyl-5-(2-(1-((4-(trifluoromethoxy)phenyl)sulfonyl)piperidin-3-yl)phenyl)pyrimidin-2-amine]
4 | > 20000 |  |  | CN(C)c1ncc(-c2ccccc2C2CCCN(C(=O)c3cccc(C(N)=O)c3)C2)cn1 (stereo not drawn) [Compound 37, 3-(3-(2-(2-(dimethylamino)-pyrimidin-5-yl)phenyl)piperidine-1-carbonyl) benzamide]
5 | 2570 ± 62 |  |  | O=C(c1ccc(OCC(F)(F)F)nc1)N1CCCC(c2ccccc2O)C1 (stereo not drawn) [Compound 7, (3-(2-hydroxyphenyl)piperidin-1-yl)(6-(2,2,2-trifluoroethoxy)pyridin-3-yl)methanone]
6 | 2570 ± 574 |  |  | COc1ncc(-c2ccccc2C2CCCN(C(=O)c3cccnc3N)C2)cn1 (stereo not drawn) [Compound 28, (2-aminopyridin-3-yl)(3-(2-(2-methoxypyrimidin-5-yl)phenyl)piperidin-1-yl)methanone]
7 | 941 ± 132 |  |  | CN(C)c1ncc(-c2ccccc2C2CCCN(C(=O)Nc3ccc(OC(F)(F)F)cc3)C2)cn1 (stereo not drawn) [Compound 31, 3-(2-(2-(dimethylamino)pyrimidin-5-yl)phenyl)-N-(4-(trifluoromethoxy)phenyl)piperidine-1-carboxamide]
8 | 676 ± 39 |  |  | CSc1ncc(-c2ccccc2C2CCCN(C(=O)c3ccc(OCC(F)(F)F)nc3)C2)cn1 (stereo not drawn) [Compound 16, (3-(2-(2-(methylthio)pyrimidin-5-yl)phenyl)piperidin-1-yl)(6-(2,2,2-trifluoroethoxy)pyridin-3-yl)methanone]
9 | 10000 to 20000 |  |  | COc1ccc(C(=O)N2CCCC(c3ccccc3-c3cnc(N(C)C)nc3)C2)cc1[C@H](O)CO (stereo partly drawn) [Compound 35, (3-((S)-1,2-dihydroxyethyl)-4-methoxyphenyl)(3-(2-(2-(dimethylamino)pyrimidin-5-yl)phenyl)piperidin-1-yl)methanone]
10 | 96 ± 6 |  |  | CN(C)c1ncc(-c2ccccc2C2CCCN(C(=O)c3ccc(OCC(F)(F)F)cc3)C2)cn1 (stereo not drawn) [Compound 40, (3-(2-(2-(dimethylamino)pyrimidin-5-yl)phenyl)piperidin-1-yl)(4-(2,2,2-trifluoroethoxy)phenyl)methanone]
11 | > 20000 |  |  | CN(C)c1ncc(-c2ccccc2C2CCCN(C(=O)c3ccc(C(N)=O)cc3)C2)cn1 (stereo not drawn) [Compound 38, 4-(3-(2-(2-(dimethylamino)-pyrimidin-5-yl)phenyl)piperidine-1-carbonyl) benzamide]
12 | > 20000 |  |  | CN(C)c1ncc(-c2ccccc2C2CCCN(S(=O)(=O)Nc3ncns3)C2)cn1 (stereo not drawn) [Compound 43, 3-(2-(2-(dimethylamino)pyrimidin-5-yl)phenyl)-N-(1,2,4-thiadiazol-5-yl)piperidine-1-sulfonamide]
13 | 954 ± 153 |  |  | O=C(c1ccc(OCC(F)(F)F)nc1)N1CCCC(c2ccccc2-c2ccc(F)nc2)C1 (stereo not drawn) [Compound 15, (3-(2-(6-fluoropyridin-3-yl)phenyl)piperidin-1-yl)(6-(2,2,2-trifluoroethoxy)pyridin-3-yl)methanone]
14 | 209 ± 16 | 511 ± 100 | 97900 ± 9300 | COc1ncc(-c2ccccc2C2CCCN(C(=O)c3ccc(OCC(F)(F)F)cc3)C2)cn1 (stereo not drawn) [Compound 6, (3-(2-(2-methoxypyrimidin-5-yl)phenyl)piperidin-1-yl)(4-(2,2,2-trifluoroethoxy)phenyl) methanone]
15 | 691 ± 60 |  |  | COc1ncccc1-c1ccccc1C1CCCN(C(=O)c2ccc(OCC(F)(F)F)nc2)C1 (stereo not drawn) [Compound 17, (3-(2-(2-methoxypyridin-3-yl)phenyl)piperidin-1-yl)(6-(2,2,2-trifluoroethoxy)pyridin-3-yl)methanone]
16 | 384 ± 80 |  |  | COc1ccc(C(=O)N2CCCC(c3ccccc3-c3cnc(N(C)C)nc3)C2)cc1 (stereo not drawn) [Compound 36, (3-(2-(2-(dimethylamino)pyrimidin-5-yl)phenyl)piperidin-1-yl)(4-methoxyphenyl)methanone]
17 | 689 ± 35 |  |  | CN(C)c1ncc(-c2ccccc2C2CCCN(C(=O)c3ccc(OC(F)(F)F)cc3)C2)cn1 (stereo not drawn) [Compound 39, (3-(2-(2-(dimethylamino)pyrimidin-5-yl)phenyl)piperidin-1-yl)(4-(tri-fluoromethoxy)phenyl)methanone]
18 | 5470 ± 220 |  |  | O=C(c1ccc(OCC(F)(F)F)nc1)N1CCCC(c2ccccc2-c2ccc(O)nc2)C1 (stereo not drawn) [Compound 19, (3-(2-(6-hydroxypyridin-3-yl)phenyl)piperidin-1-yl)(6-(2,2,2-trifluoroethoxy)pyridin-3-yl)methanone]
19 | 873 ± 27 | 2100 ± 384 | 115000 ± 22300 | COc1ncc(-c2ccccc2C2CCCN(C(=O)c3ccc(OCC(F)(F)F)nc3)C2)cn1 (stereo not drawn) [Compound 13, (3-(2-(2-methoxypyrimidin-5-yl)phenyl)piperidin-1-yl)(6-(2,2,2-trifluoroethoxy)pyridin-3-yl)methanone]
20 | > 20000 |  |  | COc1ccc(C(=O)N2CCCC(c3ccccc3-c3cnc(N(C)C)nc3)C2)cc1[C@@H](O)CO (stereo partly drawn) [Compound 34, (3-((R)-1,2-dihydroxyethyl)-4-methoxyphenyl)(3-(2-(2-(dimethylamino)pyrimidin-5-yl)phenyl)piperidin-1-yl)methanone]
21 | 2520 ± 753 |  |  | COc1ccc(NC(=S)N2CCCC(c3ccccc3-c3cnc(N(C)C)nc3)C2)cc1 (stereo not drawn) [Compound 30, 3-(2-(2-(dimethylamino)pyrimidin-5-yl)phenyl)-N-(4-methoxyphenyl)piperidine-1-carbothioamide]
22 | 672 ± 118 |  |  | COc1ccc(S(=O)(=O)N2CCCC(c3ccccc3-c3cnc(N(C)C)nc3)C2)cc1 (stereo not drawn) [Compound 32, 5-(2-(1-((4-methoxyphenyl)sulfonyl)piperidin-3-yl)phenyl)-N,N-dimethylpyrimidin-2-amine]
23 | 558 ± 31 |  |  | CN(C)c1ncc(-c2ccccc2C2CCCN(C(=O)c3ccc(OCC(F)(F)F)nc3)C2)cn1 (stereo not drawn) [Compound 18, (3-(2-(2-(dimethylamino)pyrimidin-5-yl)phenyl)piperidin-1-yl)(6-(2,2,2-trifluoroethoxy)pyridin-3-yl)methanone]
